Activity calls are given as the source filed them.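 How the source made its calls: active means compounds giving half or more protection of infected cells from virus-caused growth loss, again on retest; inactive means the rest.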 Where a SMILES comes first, the peptide text is derived from it. The star is where a group is joined. Cbz = O=C(OCc1ccccc1)*; CH2Cl = ClC*
Test system: CEM cells HIV-1 protection, formazan growth assay
Experiment: NCI AIDS Antiviral Assay
Settings: for IC50: measured here: growth of uninfected CEM cells
Outline: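 Soluble formazan readout of cell growth; CEM cells ± HIV-1; 5 drug concs. ≥50% protection → retest; ≥50% again = moderately active; reproducible 100% = confirmed active.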

Structure (SMILES)	EC50	IC50	outcome
COc1ccc(Cl)cc1C(=O)c1cc(Cl)cc(S(=O)(=O)O)c1OC	> 617 µM	427 µM	
Cc1cc([N+](=O)[O-])ccc1Sc1c2ccccc2nc2ccccc12	> 20.9 µM	> 20.9 µM	
NCCCSCC(=O)O			inactive
COc1cccc(C=NC23CC4CC(CC(C4)C2)C3)c1	> 69.2 µM	> 69.2 µM	
COc1ccc(/C=C2\CSC/C(=C\c3ccc(OC)c(OC)c3OC)C2=O)c(OC)c1OC	> 200 µM	15.5 µM	
CC1(C)C(=O)N2C(=O)CC(=O)N2C1=O	> 457 µM	> 457 µM	
CC(NCCNC(C)C(=O)O)C(=O)O (stereo unspecified)	> 676 µM	> 676 µM	
O=C1OCC/C1=C\c1ccc(O)cc1	> 1320 µM	240 µM	
O=c1[nH]nc2ccccc2c1Cl	> 39.8 µM	6.76 µM	
CCC1(O)N=C(c2ccccc2)c2ccccc2-n2cccc21 (stereo unspecified)	> 200 µM	166 µM	
CC(C)CC(NC(=O)C(O)C(N)Cc1ccccc1)C(=O)O (stereo unspecified)	> 17 µM	> 17 µM	
COC(=O)c1c2c(cc3c1CC1(C3)Cc3cc4c(c(C(=O)OC)c3C1)CCC4)CCC2	> 200 µM	> 200 µM	
Nc1ccc(C2c3ccccc3Oc3ccccc32)cc1	> 200 µM	30.9 µM	
Cc1nc(C)c(Cc2ccccc2)o1	> 200 µM	> 200 µM	
Cc1cc(O)c(C(C)C)cc1C1(c2cc(C(C)C)c(O)cc2C)OS(=O)(=O)c2ccccc21			inactive
Cc1c2ccccc2nc(CS(C)(=O)=O)[n+]1[O-]	> 200 µM	> 200 µM	
O=C(/C=C/c1ccccc1Cl)NC1C=Nc2ccc([N+](=O)[O-])cc2NC1 (stereo unspecified)	> 26.9 µM	> 26.9 µM	
c1ccc(CC2COC(c3cccs3)=N2)cc1 (stereo unspecified)	> 200 µM	126 µM	
CC1(C)OC2C(CO)OC(/N=C(\NC#N)Oc3ccccc3)C2O1 (stereo unspecified)	> 200 µM	> 200 µM	
C=C1C(C)C2C(Cc3ccccc3)NC(=O)C23OC(=O)/C=C\CC(=O)CCC(C)C/C=C/C3C1O (stereo unspecified)	> 38.9 µM	1.45 µM	
Cn1nc2c(c(Cl)c1=O)Nc1ccccc1O2	> 200 µM	> 200 µM	
O=C(Nc1ccccc1)c1c(O)[nH]c(=S)[nH]c1=O	11.2 µM	21.4 µM	
N#Cc1ccc(C2ON=C(c3ccccc3)N2C23CC4CC(CC(C4)C2)C3)cc1 (stereo unspecified)	> 200 µM	151 µM	

Structure (SMILES)	EC50	IC50	outcome
CN1C(=O)C(=O)n2c(cc3ccccc32)C1=O	> 6.31 µM	> 6.31 µM	
NC(N)=N/N=C(/c1nc2ccc([N+](=O)[O-])cc2[nH]c1=O)C(O)c1ccco1 (stereo unspecified)	> 251 µM	141 µM	
O=c1c2ccccc2[se]n1-c1ccc(Cl)cc1	8.13 µM	23.4 µM	
CC1(C)[C@@H]2C[C@H]1C(Cc1ccc(C[C@H]3c4cc(-c5ccccn5)ncc4[C@H]4C[C@@H]3C4(C)C)cc1)c1cc(-c3ccccn3)ncc12 (stereo partly specified)	> 20 µM	0.813 µM	
CCc1cccc(CC)c1NC(=S)NC(=O)c1ccc(Br)cc1	> 18.2 µM	> 18.2 µM	
CCOC(=O)c1ccccc1NC(=O)CN(CC)CC	> 200 µM	> 200 µM	
O=c1c2cccnc2ncn1CCCN1CCCCC1			inactive
COP(=O)(OC)OC=C(Cl)Cl	> 200 µM	> 200 µM	
Cc1cccc2c(N)c3cccc(C(=O)NCCNCCN)c3nc12	> 0.2 µM	0.11 µM	
O=C(O)c1cccc(S(=O)(=O)c2ccccc2)c1	> 200 µM	> 200 µM	
O=c1cc(-c2ccccc2)oc2cc(O)cc(O)c12	> 87.1 µM	38 µM	
CC(SC(=S)Nc1cccc(F)c1)C(=O)O (stereo unspecified)			inactive
Cc1nnc2sc(N/N=C/c3ccccc3)nn12	> 200 µM	> 200 µM	
COc1cc(C(c2ccc(N(Cc3ccccc3)Cc3ccccc3)cc2NC(C)=O)c2ccc(N(Cc3ccccc3)Cc3ccccc3)cc2NC(C)=O)ccc1O	> 200 µM	> 200 µM	
CCCOc1ccc2[nH]cc(C(COC)c3c[nH]c4ccc(OCCC)cc34)c2c1	> 200 µM	12.9 µM	
Nc1c(C(=O)N/N=C/c2ccc(Cl)cc2)sc(=S)n1-c1ccccc1	> 3.72 µM	> 3.72 µM	
CC(C)CC(N)CO (stereo unspecified)	> 200 µM	> 200 µM	
CCOC(=O)CCc1ccc(NC(=O)/C=C/c2ccc([N+](=O)[O-])o2)cc1	> 200 µM	0.372 µM	
CC(C)c1cc(C(C)C)c(S(=O)(=O)N/N=C2\CC3CCC2(C)C3(C)C)c(C(C)C)c1 (stereo unspecified)	> 200 µM	18.6 µM	
COc1cc(NCc2ccc3nc(OC)c(OC)nc3c2)cc(OC)c1OC	> 200 µM	> 200 µM	
O=C(Nc1ccc(/C=C/c2ccc(NC(=O)c3cc(S(=O)(=O)O)c4cccnc4c3O)cc2S(=O)(=O)O)c(S(=O)(=O)O)c1)c1cc(S(=O)(=O)O)c2cccnc2c1O	4.47 µM	148 µM	
O=C(/C=C/c1ccc(Cl)cc1)c1ccc(Cl)c(Cl)c1	> 32.4 µM	> 32.4 µM	
COc1ccc(N2C(=O)C3c4[nH]c5ccc(OC)cc5c4C4CCC(c5ccccc5)CC4C3C2=O)cc1 (stereo unspecified)	> 100 µM	67.6 µM	

Structure (SMILES)	EC50	IC50	outcome
CC1(C)CC[C@]2(C(=O)OC3OC(CO)C(O)C(O)C3O)CCC3(C)C(=CCC4[C@@]5(C)C[C@H](O)[C@H](OC6OC(CO)C(O)C(O)C6O)[C@@](C)(C(=O)O)C5CC[C@]43C)C2C1 (stereo partly specified)	> 191 µM	> 191 µM	
CN(CC1NCCCC1O)C12CC3CC(CC(C3)C1)C2 (stereo unspecified)	> 891 µM	> 891 µM	
CC(C)(C)n1[se]c2ccccc2c1=O	> 129 µM	9.33 µM	
O=C(O)c1csc(C(=O)O)c1	162 µM	759 µM	
Cc1ncc([N+](=O)[O-])n1CC[N+](C)([O-])CCCCn1ccnc1[N+](=O)[O-] (stereo unspecified)			inactive
CCOC(=O)/C(C(=S)NC)=C(/N)N1CCCC1	> 200 µM	> 200 µM	
O=c1[nH]c(O)c(/C=N/C(=S)Nc2ccc(S(=O)(=O)Nc3nccs3)cc2)c(=O)[nH]1	> 200 µM	> 200 µM	
COC(C[C@H]1CCCC[C@]1(O)/C(=C\CO[Si](C(C)C)(C(C)C)C(C)C)Sc1ccccc1)OC	> 200 µM	72.4 µM	
CCO/C=C1\C(=O)N(C(C)=O)c2cc(OC)c(OC)cc21	> 200 µM	26.9 µM	
O=C1NNC=Nc2ccc(cc2)S(=O)(=O)c2ccc(cc2)N=CNNC1=O	> 224 µM	162 µM	
COc1cccc(/C=N/[N-]C(N)=O)c1[O-].[Ni+2].[OH3+].c1cnc2c(c1)ccc1cccnc12			inactive
O=C1c2ccccc2-c2nc(-c3ccccc3)cc3c2c1nc1ccccc13	> 200 µM	30.2 µM	
O=c1[nH]c2cc([N+](=O)[O-])ccc2nc1/C(=N/Nc1ccccc1)C(O)c1ccc(Cl)cc1Cl (stereo unspecified)	> 269 µM	148 µM	
S=C(NCCc1ccccn1)c1nc[nH]c1C(=S)NCCc1ccccn1	> 200 µM	19.1 µM	
CC(C)CC(NC(=O)OCc1ccccc1)C(=O)NC(Cc1ccccc1)C(=O)CCl (stereo not drawn) (Cbz-Leu-Phe-CH2Cl; configuration not given here)	> 20 µM	1 µM	
COc1ccc(Br)c(CN2CCc3ccccc32)c1OS(=O)(=O)c1ccc(C)cc1			inactive
Cc1cc(C)c(-c2noc(-c3ccccc3)c2C2=NCCN2)c(C)c1			inactive
Oc1cccc2cccnc12	> 1230 µM	2.34 µM	inactive
O=c1[nH]c2ccccc2c(O)c1/C=N/C(=S)NC1CCCCC1	> 200 µM	> 200 µM	
Clc1cc2nn(C3CCCCO3)nc2cc1Cl (stereo unspecified)	> 200 µM	> 200 µM	
COc1ccc(Oc2c(OC)cc(NCc3ccc(CN)cc3)c3ncccc23)cc1	> 200 µM	27.5 µM	
COC1=CC(=O)c2c(O)c3c(c(O)c2C1=O)C[C@](C)(O)C[C@@H]3O			inactive
CC(C)[Si](OC1=C(C(=O)Nc2ccccc2Cl)CCCCC1)(C(C)C)C(C)C	> 200 µM	70.8 µM	

Structure (SMILES)	EC50	IC50	outcome
COc1ccccc1N/C(=C\C(=O)C(=O)NC12CC3CC(CC(C3)C1)C2)c1ccccc1	> 200 µM	> 200 µM	
COc1ccc(-c2cc(C3CC3)nc(SCC(=O)O)c2C#N)cc1	> 200 µM	39.8 µM	
COc1ccc2c(ccc3nc(CCC(=O)O)n(C)c(=O)c32)c1	> 794 µM	229 µM	
COC(=O)C1C(=O)C(C(=O)OC)C23C(C)CCC12C(C(=O)OC)C(=O)C3C(=O)OC (stereo unspecified)	> 46.8 µM	> 46.8 µM	
COc1cc2c(cc1OC)C(=O)/C(=C/c1ccc(Cl)cc1)CC2	> 200 µM	> 200 µM	
CC(C)c1ccc(/C(O)=C/C(=O)C(=O)/C=C(/O)c2ccc(C(C)C)cc2)cc1			inactive
N#Cc1nc(-c2ccccc2C(=O)O)oc1N			inactive
CC1=Nc2ccccc2/C1=C\c1c(C)[nH]c2ccccc12	0.0631 µM	11.5 µM	
COC(=O)C1=C(C(=O)Nc2cccnc2Cl)N(c2ccc(OC)cc2[N+](=O)[O-])C(c2ccc(C)cc2)=CC1c1ccc(OC)cc1OC (stereo unspecified)	> 100 µM	1.95 µM	
COC1OC(=O)C(OC)C(OC)C1OC (stereo unspecified)			inactive
COc1cccc(/C=C(/C(C)=O)C(=O)c2ccccc2)c1			inactive
C=C(CN(C)C)C(=O)c1ccccc1[N+](=O)[O-]	> 200 µM	10.7 µM	
CCOC(=O)c1cnc(-n2[nH]c(C)c(CCO)c2=O)[nH]c1=O	> 200 µM	> 200 µM	
C=C1CCCCCCCCCCC12SCCCS2	> 200 µM	> 200 µM	
CC(C)(C)OC(=O)NC1CC=CCC1NC(=O)OC(C)(C)C (stereo unspecified)	> 200 µM	> 200 µM	
CC(=O)CC1CCC(=O)CCC(=O)OC(CC(C)=O)CCC(=O)CCC(=O)O1 (stereo unspecified)	170 µM	> 200 µM	
O=C1OC(CC(=O)c2ccc(Cl)cc2)C(Cl)=C1Cl (stereo unspecified)	> 85.1 µM	> 85.1 µM	
O=C1NC2(CCCCC2)C(OCCO)C12CCCCC2 (stereo unspecified)	> 316 µM	> 316 µM	
CC1C=C[C@H](Sc2ccccc2)CC[C@@]1(C)O (stereo partly specified)	> 251 µM	22.4 µM	
COc1cc(/C=c2\sc3n(c2=O)C(c2ccc(Cl)cc2)C2=C(CCCC2C)N=3)cc(OC)c1OC (stereo unspecified)	> 200 µM	> 200 µM	

Source: PubChem BioAssay AID179 (DTP/NCI, 2004)
